Results as given in ChEMBL document CHEMBL5137049, “Discovery of a Novel Small-Molecule Inhibitor Disrupting TRBP-Dicer Interaction against Hepatocellular Carcinoma via the Modulation of microRNA Biogenesis” (J Med Chem, 2022).
pEC50: −log10 of the molar value. The source made the active and inactive calls. The rule behind the calls is not given here.

How the values were obtained:
[1] = molecular target: T1, Programmed cell death protein 4 (Homo sapiens) (UniProt Q53EL6); test: Inhibition of PDCD4 in human HeLa cells tranfected with pCI-neo-luciferase-PDCD4 3'-UTR plasmid assessed as fold change in luciferase signal by measuring relative luciferase unit by luciferase reporter assay; type: cell-based
T1 sequence (whole entry): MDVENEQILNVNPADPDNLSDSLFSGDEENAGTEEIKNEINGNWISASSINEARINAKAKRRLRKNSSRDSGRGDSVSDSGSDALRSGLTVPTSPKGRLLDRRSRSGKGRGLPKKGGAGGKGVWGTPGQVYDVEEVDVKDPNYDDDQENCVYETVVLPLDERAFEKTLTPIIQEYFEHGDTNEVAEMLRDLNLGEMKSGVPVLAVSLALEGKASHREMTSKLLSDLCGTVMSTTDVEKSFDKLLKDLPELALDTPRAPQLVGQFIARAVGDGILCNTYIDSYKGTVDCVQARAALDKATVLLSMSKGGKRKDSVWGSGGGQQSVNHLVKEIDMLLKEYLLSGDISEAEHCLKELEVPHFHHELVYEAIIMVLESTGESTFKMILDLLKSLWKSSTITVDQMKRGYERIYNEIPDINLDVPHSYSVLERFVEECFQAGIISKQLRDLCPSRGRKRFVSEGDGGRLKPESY

[2] = test system: HeLa; test: Inhibition of microRNA in human HeLa cells transfected with pCI-neo-luciferase-miR-21 plasmid assessed as change in luciferase signal by measuring relative luciferase unit by luciferase reporter assay; type: cell-based
[3] = Inhibition of microRNA in human HeLa cells transfected with pCI-neo-luciferase-miR-21 plasmid assessed as change in luciferase signal incubated for 24 hrs by luciferase reporter assay; type: cell-based
[4] = test system: SK-HEP1; test: Inhibition of cell migration in human SK-HEP1 cells at 10 to 25 uM measured after 24 hrs by crystal violet staining based transwell assay; type: functional; conditions: dose 10-25 µM
[5] = test system: HCCLM3; test: Antiproliferative activity against human HCCLM3 cells assessed as inhibition of cell growth incubated for 72 hrs by CellTiter-luminescence assay; type: functional, cell-based
[6] = test system: SK-HEP1; test: Antiproliferative activity against human SK-HEP1 cells assessed as inhibition of cell growth incubated for 72 hrs by CellTiter-luminescence assay; type: functional, cell-based

Compound	RLU [1]	RLU [2]	further results
COC(=O)[C@@H](C(C)C)N(Cc1nc(-c2ccc(OC)c(OC)c2)oc1C)S(=O)(=O)c1ccc(C)cc1	0.95	1.08	–
COc1ccc(-c2nc(CCl)c(C)o2)cc1OC	1.06	1.3	–
COC(=O)[C@@H](C(C)C)N(Cc1nc(-c2ccccc2)oc1C)S(=O)(=O)c1ccc(OC)cc1	1.09	0.96	–
COC(=O)[C@@H](C(C)C)N(Cc1nc(-c2ccc(Cl)cc2)oc1C)S(=O)(=O)c1ccc(OC)cc1	0.93	1.12	–
CCOC(=O)c1nc(-c2ccc(Br)cc2)oc1C	–	–	pEC50 [3]: 5.22
Cc1oc(-c2ccccc2)nc1CCl	1.03	1.13	–
COc1ccc(-c2nc(CN([C@@H](C(=O)NO)C(C)C)S(=O)(=O)c3ccc(OC)cc3)c(C)o2)cc1	1.02	1.01	–
Cc1oc(-c2ccc([N+](=O)[O-])cc2)nc1CCl	1.11	1.2	–
COC(=O)[C@@H](C(C)C)N(Cc1nc(-c2ccc(OC)cc2)oc1C)S(=O)(=O)c1ccc(C)cc1	1.04	1.06	–
COC(=O)[C@@H](C(C)C)N(Cc1nc(-c2ccc(OC)c(OC)c2)oc1C)S(=O)(=O)c1ccc(OC)cc1	0.95	1.06	–
CCOC(=O)c1nc(-c2ccc(C)cc2)oc1C	–	–	pEC50 [3]: 5.52; inhibition [4]: Active; Activity [5]: Active; Activity [6]: Active
COC(=O)[C@@H](C(C)C)N(Cc1nc(-c2ccc(OCc3ccccc3)cc2)oc1C)S(=O)(=O)c1ccc(OC)cc1	1.32	1.58	–
COc1ccc(-c2nc(CCl)c(C)o2)cc1	1.05	1.12	–
CCOC(=O)c1nc(-c2ccc(OC)c(OC)c2)oc1C	1.17	1.35	–
COc1cc(-c2nc(CCl)c(C)o2)cc(OC)c1OC	2.01	1.09	–
COc1ccc(-c2nc(CN([C@@H](C(=O)O)C(C)C)S(=O)(=O)c3ccc(C)cc3)c(C)o2)cc1	1.05	1.12	–
COc1ccc(-c2nc(CN([C@@H](C(=O)O)C(C)C)S(=O)(=O)c3ccc(OC)cc3)c(C)o2)cc1	1	1.04	–
COc1ccc(S(=O)(=O)N(Cc2nc(-c3ccc(OC)c(OC)c3)oc2C)[C@@H](C(=O)NO)C(C)C)cc1	0.86	1.02	–
CCOC(=O)c1nc(-c2ccc(Cl)cc2)oc1C	–	–	pEC50 [3]: 5.13
Cc1oc(-c2ccc(OCc3ccccc3)cc2)nc1CCl	2.01	4.77	–
COc1ccc(S(=O)(=O)N(Cc2nc(-c3cc(OC)c(OC)c(OC)c3)oc2C)[C@@H](C(=O)NO)C(C)C)cc1	0.94	1.06	–

Compound	RLU [1]	RLU [2]	further results
COc1ccc(S(=O)(=O)N(Cc2nc(-c3ccccc3)oc2C)[C@@H](C(=O)NO)C(C)C)cc1	0.98	1.02	–
CCOC(=O)c1nc(-c2ccccc2)oc1C	1.07	1.14	–
Cc1oc(-c2ccc(-c3ccccc3)cc2)nc1C(=O)OCCO	–	–	pEC50 [3]: 5.13; inhibition [4]: Active; Activity [5]: Active; Activity [6]: Active
COC(=O)[C@@H](C(C)C)N(Cc1nc(-c2ccc(OC)cc2)oc1C)S(=O)(=O)c1ccc(OC)cc1	1.03	0.99	–
COc1ccc(-c2nc(CN([C@@H](C(=O)O)C(C)C)S(=O)(=O)c3ccc(C)cc3)c(C)o2)cc1OC	0.97	0.98	–
COc1ccc(S(=O)(=O)N(Cc2nc(-c3ccc(OC)c(OC)c3)oc2C)[C@@H](C(=O)O)C(C)C)cc1	0.86	1.02	–
CCOC(=O)c1nc(-c2ccc(-c3ccccc3)cc2)oc1C	–	–	pEC50 [3]: 5.73; inhibition [4]: Active; Activity [5]: Active; Activity [6]: Active
COc1ccc(S(=O)(=O)N(Cc2nc(-c3cc(OC)c(OC)c(OC)c3)oc2C)[C@@H](C(=O)O)C(C)C)cc1	1.02	1.08	–
COC(=O)[C@@H](C(C)C)N(Cc1nc(-c2cc(OC)c(OC)c(OC)c2)oc1C)S(=O)(=O)c1ccc(OC)cc1	1.03	1.08	–
COc1ccc(S(=O)(=O)N(Cc2nc(-c3ccccc3)oc2C)[C@@H](C(=O)O)C(C)C)cc1	1.01	1.05	–
Cc1oc(-c2ccc(Cl)cc2)nc1CCl	1.11	1.22	–
COC(=O)[C@@H](C(C)C)N(Cc1nc(-c2ccc([N+](=O)[O-])cc2)oc1C)S(=O)(=O)c1ccc(OC)cc1	0.96	0.98	–
COc1ccc(S(=O)(=O)N(Cc2nc(-c3ccc(Cl)cc3)oc2C)[C@@H](C(=O)O)C(C)C)cc1	0.97	1.06	–
COc1ccc(S(=O)(=O)N(Cc2nc(-c3ccc([N+](=O)[O-])cc3)oc2C)[C@@H](C(=O)O)C(C)C)cc1	1.02	1.17	–
COC(=O)[C@@H](C(C)C)N(Cc1nc(-c2ccc(Cl)cc2)oc1C)S(=O)(=O)c1ccc(C)cc1	1.08	1.03	–
COC(=O)[C@H](NS(=O)(=O)c1ccc(C)cc1)C(C)C	1.03	1.04	–
CCOC(=O)c1nc(-c2cc(OC)c(OC)c(OC)c2)oc1C	1.09	1.13	–
Cc1ccc(S(=O)(=O)N(Cc2nc(-c3ccc(Cl)cc3)oc2C)[C@@H](C(=O)O)C(C)C)cc1	1.03	1.14	–
COc1ccc(S(=O)(=O)N(Cc2nc(-c3ccc(OCc4ccccc4)cc3)oc2C)[C@@H](C(=O)O)C(C)C)cc1	1.65	2.47	–
COC(=O)[C@H](NS(=O)(=O)c1ccc(OC)cc1)C(C)C	1.06	1.02	–
